Assays:
[1] = test system: CCRF-CEM; assay: panel of 60 human tumor cell lines, growth inhibition (Leukemia); settings: Homo sapiens; for GI50: NCI five dose; for CC50: read-out: LC50; for IC (TGI): read-out: TGI
[2] = test system: MOLT-4; assay: as above; settings: Homo sapiens; for GI50: MOLT-4; for CC50: MOLT-4, read-out: LC50; for IC (TGI): MOLT-4, read-out: TGI
[3] = test system: SR; assay: as above; settings: Homo sapiens; for CC50: read-out: LC50; for IC (TGI): read-out: TGI
[4] = test system: MDA-MB-435; assay: panel of 60 human tumor cell lines, growth inhibition (Melanoma); settings: Homo sapiens; for GI50: MDA-MB-435; for CC50: MDA-MB-435, read-out: LC50; for IC (TGI): MDA-MB-435, read-out: TGI
[5] = test system: SK-MEL-28; assay: as above; settings: Homo sapiens; for GI50: SK-MEL-28; for CC50: SK-MEL-28, read-out: LC50; for IC (TGI): SK-MEL-28, read-out: TGI
[6] = test system: SK-MEL-5; assay: as above; settings: Homo sapiens; for GI50: SK-MEL-5; for CC50: SK-MEL-5, read-out: LC50; for IC (TGI): SK-MEL-5, read-out: TGI
[7] = test system: SF-539; assay: panel of 60 human tumor cell lines, growth inhibition (CNS Cancer); settings: Homo sapiens; for GI50: SF-539; for CC50: SF-539, read-out: LC50; for IC (TGI): SF-539, read-out: TGI
[8] = test system: COLO 205; assay: panel of 60 human tumor cell lines, growth inhibition (Colon Cancer); settings: Homo sapiens; for GI50: COLO 205; for CC50: COLO 205, read-out: LC50
[9] = test system: HT29; assay: as above; settings: for Percent Growth: HT29; for GI50 / CC50 / IC (TGI): Homo sapiens; for GI50: HT-29; for CC50: HT-29, read-out: LC50; for IC (TGI): HT-29, read-out: TGI
[10] = test system: ACHN; assay: panel of 60 human tumor cell lines, growth inhibition (Renal Cancer); settings: Homo sapiens; for CC50: read-out: LC50; for IC (TGI): read-out: TGI
[11] = test system: TK-10; assay: as above; settings: Homo sapiens; for GI50: TK-10, TK-10, NCI five dose; for CC50: TK-10, read-out: LC50; for IC (TGI): TK-10, read-out: TGI
[12] = test system: HS 578T; assay: panel of 60 human tumor cell lines, growth inhibition (Breast Cancer); settings: Homo sapiens, Hs-578T; for CC50: read-out: LC50; for IC (TGI): read-out: TGI
[13] = test system: T-47D; assay: as above; settings: Homo sapiens, T47D; for CC50: read-out: LC50; for IC (TGI): read-out: TGI
[14] = test system: MDA-MB-468; assay: as above; settings: Homo sapiens; for GI50: MDA-MB-468; for CC50: MDA-MB-468, read-out: LC50; for IC (TGI): MDA-MB-468, read-out: TGI
[15] = test system: OVCAR-8; assay: panel of 60 human tumor cell lines, growth inhibition (Ovarian Cancer); settings: Homo sapiens; for GI50: OVCAR-8; for CC50: OVCAR-8, read-out: LC50; for IC (TGI): OVCAR-8, read-out: TGI
[16] = test system: NCI/ADR-RES; assay: as above; settings: Homo sapiens; for CC50: read-out: LC50; for IC (TGI): read-out: TGI
[17] = test system: NCI-H23; assay: panel of 60 human tumor cell lines, growth inhibition (Non-Small Cell Lung Cancer); settings: Homo sapiens; for GI50: NCI-H23; for CC50: NCI-H23, read-out: LC50; for IC (TGI): NCI-H23, read-out: TGI
[18] = test system: NCI-H460; assay: as above; settings: Homo sapiens; for GI50: NCI-H460; for CC50: NCI-H460, read-out: LC50

Compound `C=C1C(=O)O[C@H]2[C@H]1CC/C(COC(=O)OC)=C\CC[C@@]1(C)O[C@@H]21` [JVM 2-40] has a GI50 [1] of 1.49 µM, a CC50 [1] of 98 µM and an IC (TGI) [1] of 6.04 µM. The GI50 [2] was 4.05 µM, the CC50 [2] was > 100 µM and the IC (TGI) [2] was 21.7 µM. The GI50 [3] was 2.24 µM, the CC50 [3] was > 100 µM and the IC (TGI) [3] was 12.5 µM. It also gave a GI50 [4] of 3.63 µM, a CC50 [4] of 55.4 µM and an IC (TGI) [4] of 16.8 µM. For the same compound, the GI50 [5] was 3.59 µM, the CC50 [5] was 44.8 µM and the IC (TGI) [5] was 16 µM. For the same compound, the GI50 [6] was 7.58 µM, the CC50 [6] was 50.6 µM and the IC (TGI) [6] was 21.5 µM. The GI50 [7] was 2.56 µM, the CC50 [7] was 32.7 µM and the IC (TGI) [7] was 8.79 µM. For the same compound, the GI50 [8] was 2.25 µM, the CC50 [8] was 25 µM and the “Percent Growth” value ([9]; Log10 Concentration −4.0) was −76%. For the same compound, the “Percent Growth” value ([9]; Log10 Concentration −5.0) was 83%, the “Percent Growth” value ([9]; Log10 Concentration −6.0) was 99% and the “Percent Growth” value ([9]; Log10 Concentration −7.0) was 96%. For the same compound, the “Percent Growth” value ([9]; Log10 Concentration −8.0) was 96%, the GI50 [9] was 16.1 µM and the CC50 [9] was 68.6 µM. It also gave an IC (TGI) [9] of 33.2 µM, a GI50 [10] of 2.4 µM and a CC50 [10] of 32.2 µM. It also gave an IC (TGI) [10] of 8.17 µM, a GI50 [11] of 2.65 µM and a CC50 [11] of 32.9 µM. The IC (TGI) [11] was 10.8 µM, the GI50 [12] was 4.72 µM and the CC50 [12] was > 100 µM. For the same compound, the IC (TGI) [12] was 38.9 µM, the GI50 [13] was 2.7 µM and the CC50 [13] was 61.3 µM. It also gave an IC (TGI) [13] of 12.5 µM, a GI50 [14] of 0.574 µM and a CC50 [14] of 19.2 µM. The IC (TGI) [14] was 3.09 µM, the GI50 [15] was 8.95 µM and the CC50 [15] was 65.6 µM. For the same compound, the IC (TGI) [15] was 24.7 µM, the GI50 [16] was 17.2 µM and the CC50 [16] was > 100 µM. It also gave an IC (TGI) [16] of 49.2 µM, a GI50 [17] of 13 µM and a CC50 [17] of 85.2 µM. The IC (TGI) [17] was 33.3 µM, the GI50 [18] was 16.7 µM and the CC50 [18] was 89.7 µM.
`C=C1C(=O)O[C@H]2[C@H]1CC/C(COC(=O)OCCN(C)C)=C\CC[C@@]1(C)O[C@@H]21` [JVM 2-35] was tested, and the GI50 [1] was 2.1 µM, the CC50 [1] was > 100 µM and the IC (TGI) [1] was 6.14 µM. For the same compound, the GI50 [2] was 5.5 µM, the CC50 [2] was > 100 µM and the IC (TGI) [2] was 26.1 µM. The GI50 [3] was 2.22 µM, the CC50 [3] was > 100 µM and the IC (TGI) [3] was 12.1 µM. The GI50 [4] was 4.03 µM, the CC50 [4] was 45.7 µM and the IC (TGI) [4] was 16.3 µM. The GI50 [5] was 4.27 µM, the CC50 [5] was 48.3 µM and the IC (TGI) [5] was 17.9 µM. For the same compound, the GI50 [6] was 11.5 µM, the CC50 [6] was 53.8 µM and the IC (TGI) [6] was 24.9 µM. The GI50 [7] was 3.86 µM, the CC50 [7] was 41.3 µM and the IC (TGI) [7] was 14.7 µM. For the same compound, the GI50 [8] was 2.19 µM, the CC50 [8] was 18.6 µM and the IC (TGI) ([8]; COLO 205, read-out: TGI) was 5.46 µM. For the same compound, the “Percent Growth” value ([9]; Log10 Concentration −4.0) was −29%, the “Percent Growth” value ([9]; Log10 Concentration −5.0) was 91% and the “Percent Growth” value ([9]; Log10 Concentration −6.0) was 98%. For the same compound, the “Percent Growth” value ([9]; Log10 Concentration −7.0) was 99%, the “Percent Growth” value ([9]; Log10 Concentration −8.0) was 98% and the GI50 [9] was 21.8 µM. The CC50 [9] was > 100 µM, the IC (TGI) [9] was 57.2 µM and the GI50 [10] was 3.26 µM. It also gave a CC50 [10] of 40.9 µM, an IC (TGI) [10] of 13.4 µM and a GI50 [11] of 3.92 µM. It also gave a CC50 [11] of 43.8 µM, an IC (TGI) [11] of 15.1 µM and a GI50 [12] of 13.6 µM. The CC50 [12] was > 100 µM, the IC (TGI) [12] was 59.3 µM and the GI50 [13] was 2.95 µM. It also gave a CC50 [13] of 58.8 µM, an IC (TGI) [13] of 12.4 µM and a GI50 [14] of 1.46 µM. The CC50 [14] was 50.4 µM, the IC (TGI) [14] was 9.2 µM and the GI50 [15] was 13.5 µM. It also gave a CC50 [15] of 96 µM, an IC (TGI) [15] of 36 µM and a GI50 [16] of 23.7 µM. The CC50 [16] was > 100 µM, the IC (TGI) [16] was 84.6 µM and the GI50 [17] was 16 µM. For the same compound, the CC50 [17] was 91 µM, the IC (TGI) [17] was 38.2 µM and the GI50 [18] was 20.7 µM. The CC50 [18] was > 100 µM and the IC (TGI) ([18]; NCI-H460, read-out: TGI) was 52.1 µM.

Source: US9469650B2, “Melampomagnolide B derivatives” (BOARD OF TRUSTEES OF THE UNIVERSITY OF ARKANSAS, priority 2013, dated 2016)
